In patent US9987216B2, “Plant fat composition for cosmetic preparation” (priority 2016, dated 2018):

Experiments:
[1] = Journal of the American College of Toxicology Vol. 6, No. 3, 1987; cited from earlier work
[2] = test system: skin on the inner side of the upper arm; experiment: Skin irritation in the test subjects of the TEWL test; type: in vivo; conditions: all test subjects (n=6), 100 μl on the skin
Method: 100 μl of each product was applied to the skin on the inner side of the upper arm and kept absorbed into the skin for 5 minutes. The transepidermal water loss was then measured at predetermined intervals. In addition, all the test subjects (n=6) had no irritation to both the plant fat composition of the present invention and the plant-derived squalane.

[3] = DPPH radical scavenging (antioxidative effect); conditions: concentration of 10%; 30 minutes in the dark, absorbance 540 nm
Method: DPPH (2,2-diphenyl-1-picryl-hydrazyl) is a purple-colored stable free radical substance that receives hydrogens from an antioxidant to undergo decolorization. Upon exposure to an antioxidant, the DPPH acts as a […] the antioxidant and becomes removed of free radicals, resulting in decolorization, which makes it possible to evaluate the radical-scavenging activity.
Vitamin E (acetate) was used as a control.
(a) Prepare a 0.2 mM DPPH reagent dissolved in n-hexane.
(b) Prepare test samples by concentration.
(c) Add 100 μl of the reagent and 100 μl of each sample in four wells of a 96-well test plate.
(d) Add 100 μl of the reagent and 100 μl of a solvent in four wells to remove the blank value.
(e) Kept in the dark for 30 minutes at the room temperature.
(f) Measure the absorbance at 540 nm with an ELISA reader (TECAN microplate reader).
Analysis Method (Calculation Method) DPPH radical scavenging ability (%)=[1−(absorbance of sample/absorbance of blank)]×100

Structure (SMILES)	safety in use for cosmetic formulations [1]	also measured
CCCCCCCCCCCCCC(=O)O [myristic acid]	safe	
CC(C)CCCC(C)CCCC(C)CCCCC(C)CCCC(C)CCCC(C)C (stereo not shown) [plant-derived squalane, squalane]		skin irritation [2]: no irritation
CC(=O)Oc1c(C)c(C)c2c(c1C)CCC(C)(CCC[C@H](C)CCC[C@H](C)CCCC(C)C)O2 (stereo partly shown) [vitamin E, Vitamin E (acetate)]		DPPH radical scavenging activity [3]: 5%
CCCCCCCCCCCCCCCC(=O)O [palmitic acid]	safe	
CCCCCCCCCCCC(=O)O [lauric acid]	safe	
CCCCCCCC/C=C\CCCCCCCC(=O)O [oleic acid]	safe	
CCCCCCCCCCCCCCCCCC(=O)O [stearic acid]	safe	
